Experimental data as given in patent publication US20110262508A1, “ANTIMICROBIAL COMPOSITIONS, FORMULATIONS AND USES THEREOF” (priority 2007, published 2011).
Like-named read-outs stand apart in the source and are kept apart here. Square brackets hold non-standard residues; d marks the D form. Peptide text beside a SMILES is read from it. * marks the point of attachment. Biotin = O=C1N[C@H]2[C@H](CS[C@H]2CCCCC(=O)*)N1

Key:
[1] = system: human RBC; assay: Hemolysis of RBC; format: cell-based
Method: Varying amounts of peptide were incubated with the washed RBC for one hour at room temperature. Intact cells were pelleted by gentle centrifugation, and hemolysis of each sample was determined by absorption measurement at 450 nm. A positive control sample consisted of RBC lysed by the addition of 0.1% Triton, for which hemolysis was also determined by absorption measurement at 450 nm. Percentages of lysed RBC incubated with peptide were then calculated by the ratio of absorbances at 450 nm for the sample relative to the absorbance at 450 nm of the positive control sample. The MHC10 value was calculated as the minimum peptide concentration to induce 10% cell lysis.

[2] = system: Jurkat cells; assay: Cytotoxicity against Jurkat cells (CellTiter Blue); format: cell-based, human
Method: (§1) The cytotoxicities of selected peptides against human T-lymphocytes, in particular Jurkat cells, was determined by growing 100 uL Jurkat cells in RPMI (approx. 5×10^5 cells/ml density) overnight at 37° C. under 5% CO2 atmosphere, in microtiter plate wells, in the presence and absence of peptides. Control reactions either lacked peptide (negative cytotoxicity control), or contained a buffer to completely lyse Jurkat cells (positive cytotoxicity control). The viabilities of cells were then determined by addition of 20 uL CellTiter Blue dye (Promega) to each well, and incubation of cells for a further 3 hrs at 37° C. Fluorescence values were measured for 1 sec at 540 nm/615 nm, and expressed relative to fluorescence values for negative and positive cytotoxicity control samples. Comparison with a fully lysed control allowed the calculation of a percentage killing for each peptide concentration. The MCC10 value was calculated as the minimum peptide concentration required to induce 10% cytotoxicity.

[3] = Cytotoxicity against Jurkat cells (CellTiter Blue); format: cell-based, human; conditions: human
Method: as §1

[4] = system: A. baumannii; format: cell-based
How it was run: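 Laboratory strains and 50 clinical isolates of A. baumannii were tested by CLSI broth microdilution, with serially diluted peptide (0.1-64 μg) and about 1×10^5 C.F.U. per well, incubated aerobically overnight at 35±2° C. MIC was read visually. MBC came from subculturing clear wells, as ≥99.9% inoculum reduction.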

[5] = system: A. baumannii; assay: A. baumannii lung infection in mice, cell counts in lungs; format: in vivo, C57B1/6 mice
Method: Groups of C57B1/6 mice that have been ear-tagged for identification are used. Freshly-prepared inocula of A. baumannii are prepared from cultures of A. baumannii passaged four times through mice, and cultures are grown with agitation at 37° C. in Nutrient broth to an OD600 value of approximately 0.3 units. Cells are collected by centrifugation at room temperature for 20 mins (5,500 rpm using a GA-10 rotor) and resuspended in 10 ml sterile PBS at room temperature. This wash is repeated once. The cell pellet is then resuspended in 0.5 ml PBS to an approximate concentration of 2.5×10^9 c.f.u./ml. Animals are inoculated intranasally 40 μl inoculum (approximately 1×10^8 c.f.u.) using a sterile 200 μl capacity pipette tip having approximately 3 mm removed from the end. The precise time of inoculation is recorded for each animal. Peptides are administered intravenously e.g., after 3 hr, in 200 μl aliquots of a 200 μM peptide solution in PBS.
At 5.5 hr post-inoculation (taking into account staggered inoculation times), both lung lobes are removed from the animals, homogenised in 0.9 ml PBS and plated on MHB plates at 1×10^−3 dilution, 1×10^−4 dilution and 1×10^−5 dilution in PBS. Following incubation periods sufficient to grow colonies, cells are counted.

[6] = system: A. baumannii cultures; assay: Time taken to exert cytotoxic effect (killing time); format: cell-based
Method: To determine the time killing times for bactericidal peptides, A. baumannii cultures were exposed to different concentrations of peptides for predetermined time periods, and the numbers of bacteria surviving at the end of each time period were determined. Peptides were classified as “Fast”, “Intermediate” or “Slow” according to whether they exerted their cytotoxic effect in less than 30 mins, or between 30-60 mins, or between […] and 240 mins.

[7] = system: A. baumannii ATCC 19606, Acinetobacter spp. ATCC 17903, Acinetobacter spp. ATCC 19004, E. coli BL21, S. aureus, S. typhimurium AroA, P. aeruginosa, P. …; assay: Antibacterial spectrum over the serial dilution panel (Table 6); format: cell-based; conditions: summary of Table 6
How it was run: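 Peptides at about 5–10 μM were added to liquid media freshly inoculated with each bacterial strain and shaken 5-6 h at 37° C. Growth read as absorbance at 595 nm; control cultures contained 0.1% acetonitrile.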

[8] = system: Acinetobacter spp. ATCC 17903; format: cell-based
[9] = system: S. typhimurium strain AroA; format: cell-based
[10] = system: P. aeruginosa; format: cell-based
[11] = system: S. aureus; format: cell-based
[12] = system: Acinetobacter spp. ATCC 19004; format: cell-based
[13] = system: A. baumannii ATCC Accession No. 19606; format: cell-based; conditions: A. baumannii ATCC 19606
[14] = system: Escherichia coli strain BL21; format: cell-based; conditions: E. coli BL21

CC[C@@H](C)[C@@H](NC(=O)[C@@H](CCCNC(=N)N)NC(=O)[C@@H](C)NC(=O)[C@@H](CC(C)C)NC(=O)[C@@H](CCCNC(=N)N)NC(=O)[C@@H](CCCNC(=N)N)NC(=O)CCCC[C@@H]1SC[C@@H]2NC(=O)N[C@@H]21)C(=O)N[C@H](CCCCN)C(=O)N[C@H](CO)C(=O)N[C@H](CC(C)C)C(=O)N[C@H](CC(C)C)C(=O)N[C@H](CCC(N)=O)C(=O)N[C@H](CCCNC(=N)N)C(=O)N[C@H](CS)C(=O)N[C@@H](C(=O)N[C@H](C)C(=O)N[C@H](Cc1ccccc1)C(=O)N[C@H](Cc1ccccc1)C(=O)N[C@H](CO)C(=O)N[C@H](Cc1c[nH]cn1)C(=O)N[C@H](CC(N)=O)C(=O)N[C@H](Cc1ccc(O)cc1)C(=O)N[C@H](CCCNC(=N)N)C(=O)N[C@@H](C(=O)O)C(C)C)C(C)C [Ac13r] (Biotin-[dR][dR][dL][dA][dR][dI][dK][dS][dL][dL][dQ][dR][dC][dV][dA][dF][dF][dS][dH][dN][dY][dR][dV]-OH; N-terminus and C-terminus assumed)
MHC10 [1]: ~15 µM
MCC10 [2]: 30 µM
cytotoxicity at 12.5 μM [3]: 0%
cytotoxicity at 25 μM [3]: 3%
cytotoxicity at 50 μM [3]: 39%
MIC (μM) for amidated peptide [4]: 1.25 to 2.5 µM
MIC (μM) for non-amidated Peptide [4]: 1.25 to 2.5 µM
trend to reduce A. baumannii infection in the lung [5]: strong trend
Cell counts in lungs post-treatment, Mouse 2 ([5]; as E41, Mouse 2): 2.6 × 10^5
Cell counts in lungs post-treatment, Mouse 3 ([5]; as E41, Mouse 3): 9.0 × 10^4
Cell counts in lungs post-treatment, Mouse 1 ([5]; peptide i.v. after intranasal A. baumannii, lungs at 5.5 hr post-inoculation, Mouse 1): 1 × 10^4

CC[C@H](C)[C@H](NC(=O)[C@H](Cc1c[nH]c2ccccc12)NC(=O)[C@H](CC(=O)O)NC(=O)[C@H](CO)NC(=O)[C@H](CS)NC(=O)[C@H](CC(C)C)NC(=O)[C@H](CC(C)C)NC(=O)[C@H](C)NC(=O)[C@H](CS)NC(=O)[C@H](CCCNC(=N)N)NC(=O)[C@H](CC(C)C)NC(=O)[C@H](CCCNC(=N)N)NC(=O)[C@H](C)NC(=O)CNC(=O)[C@H](CCCNC(=N)N)NC(=O)[C@@H](NC(=O)CCCC[C@@H]1SC[C@@H]2NC(=O)N[C@@H]21)C(C)C)C(=O)N[C@H](C(=O)N[C@@H](CO)C(=O)N[C@@H](CS)C(=O)N[C@@H](CCCNC(=N)N)C(=O)N[C@@H](CC(C)C)C(=O)N[C@@H](CC(C)C)C(=O)NCC(=O)O)C(C)C [Ac38] (Biotin-VRGARLRCALLCSDWIVSCRLLG-OH; N-terminus and C-terminus assumed)
MHC10 [1]: >100 µM
Percent hemolysis at 5 μM peptide ([1]; red cells of human, 5): 0.8%
Percent hemolysis at 10 μM peptide ([1]; red cells of human, 10): 3.8%
Percent hemolysis at 20 μM peptide ([1]; red cells of human, 20): 4.8%
Percent hemolysis at 40 μM peptide ([1]; red cells of human, 40): 11.9%
Percent hemolysis at 60 μM peptide ([1]; red cells of human, 60): 19.5%
Percent hemolysis at 80 μM peptide ([1]; red cells of human, 80): 26.9%
Percent hemolysis at 100 μM peptide ([1]; red cells of human, 1 h, 100): 27.9%
cytotoxicity at 12.5 μM [3]: 0%
cytotoxicity at 25 μM [3]: 0%
cytotoxicity at 50 μM [3]: 0%
killing time classification [6]: RAPID
selectively inhibited growth of A. baumannii ATCC Accession No. 19606, Acinetobacter spp. ATCC 17903, Acinetobacter spp. ATCC 19004, and S. aureus [7]: selectively inhibited growth
MIC (μM) for amidated peptide [4]: 15 to 20 µM
MIC (μM) for non-amidated Peptide [4]: 40 µM
bactericidal or bacteriostatic against A. baumannii [4]: bactericidal

CC(C)C[C@H](NC(=O)CNC(=O)[C@@H]1CCCN1C(=O)[C@H](Cc1c[nH]c2ccccc12)NC(=O)[C@H](CCCCN)NC(=O)[C@H](CCCCN)NC(=O)[C@H](CCCNC(=N)N)NC(=O)[C@H](C)NC(=O)[C@H](CCC(N)=O)NC(=O)[C@@H]1CCCN1C(=O)[C@H](CO)NC(=O)[C@@H](NC(=O)[C@H](CCCCN)NC(=O)[C@H](CC(C)C)NC(=O)[C@H](CCCCN)NC(=O)[C@@H](NC(=O)[C@H](CC(C)C)NC(=O)[C@H](Cc1c[nH]cn1)NC(=O)[C@H](CC(=O)O)NC(=O)CN)C(C)C)[C@@H](C)O)C(=O)NCC(=O)N[C@@H](CC(N)=O)C(=O)N[C@@H](CCC(=O)O)C(=O)O [Ac99] (H-GDHLVKLKTSPQARKKWPGLGNE-OH; N-terminus and C-terminus assumed)
selectively inhibited growth of Acinetobacter spp. ATCC 19004, and S. aureus [7]: selectively inhibited growth
% inhibition of bacterial growth by peptide ([8]; 12.5 μM peptide): 0%
% inhibition of bacterial growth by peptide ([8]; 15 μM peptide): 1%
% inhibition of bacterial growth by peptide ([8]; 17.5 μM peptide): 1%
% inhibition of bacterial growth by peptide ([8]; 20 μM peptide): 32%
% inhibition of bacterial growth by peptide ([9]; 12.5 μM peptide): 0%
% inhibition of bacterial growth by peptide ([9]; 15 μM peptide): 5%
% inhibition of bacterial growth by peptide ([9]; 17.5 μM peptide): 0%
% inhibition of bacterial growth by peptide ([9]; 20 μM peptide): 4%
% inhibition of bacterial growth by peptide ([10]; 12.5 μM peptide): 8%
% inhibition of bacterial growth by peptide ([10]; 15 μM peptide): 21%
% inhibition of bacterial growth by peptide ([10]; 17.5 μM peptide): 0%
% inhibition of bacterial growth by peptide ([10]; 20 μM peptide): 0%
% inhibition of bacterial growth by peptide ([11]; 12.5 μM peptide): 60%
% inhibition of bacterial growth by peptide ([11]; 15 μM peptide): 80%
% inhibition of bacterial growth by peptide ([11]; 17.5 μM peptide): 99%
% inhibition of bacterial growth by peptide ([11]; 20 μM peptide): 100%
% inhibition of bacterial growth by peptide ([12]; 12.5 μM peptide): 0%
% inhibition of bacterial growth by peptide ([12]; 15 μM peptide): 1%
% inhibition of bacterial growth by peptide ([12]; 17.5 μM peptide): 7%
% inhibition of bacterial growth by peptide ([12]; 20 μM peptide): 92%
% inhibition of bacterial growth by peptide ([13]; 12.5 μM peptide): 9%
% inhibition of bacterial growth by peptide ([13]; 15 μM peptide): 20%
% inhibition of bacterial growth by peptide ([13]; 17.5 μM peptide): 14%
% inhibition of bacterial growth by peptide ([13]; 20 μM peptide): 27%
% inhibition of bacterial growth by peptide ([14]; 12.5 μM peptide): 16%
% inhibition of bacterial growth by peptide ([14]; 15 μM peptide): 23%
% inhibition of bacterial growth by peptide ([14]; 17.5 μM peptide): 17%
% inhibition of bacterial growth by peptide ([14]; 20 μM peptide): 27%
